Experimental data: US8293749B2, “Injectable meclizine formulations and methods” (Genebiology, Inc., priority 2007, dated 2012)
Values after ≈ are worked out from the molar mass of the structure shown.

How the values were obtained:
nausea and vomiting = conditions: anti-emetic; cited from earlier work
[1] = Merck Index, 12th Ed, 984; cited from earlier work
physchem [2] = conditions: 25 °C, pH 3, aqueous buffer, thermodynamic from solid, aqueous solubility of meclizine at pH 3.0
Method: (§1) Five HPBCD and five SBECD solutions in 0.5 M citric acid buffer (pH of 3.0) are prepared, with HPBCD and SBECD concentrations of 50; 100; 150 and 200 mg/ml. 3 ml of the various buffered HPBCD and SBECD solutions are placed in 4 ml vials. 75-100 mg meclizine is added to each vial, such that excess meclizine is provided. The vials are sealed and are shaken on an orbital shaker for 24 hours at 200 rpm and 25° C. Following the shaking, the vials are filtered through 0.45 μm filters to remove any excess solute. The remaining solution is assayed by HPLC for meclizine content.

[3] = Solubility of meclizine with cyclodextrins in ddH2O, HPLC; assay type: physicochemical; conditions: alpha-CD 0-100 mg/ml, gamma-CD, HPBCD and SBECD at 200 mg/ml versus no CD
Method: FIG. 1A depicts solubility data of meclizine complexed with non-chemically modified cyclodextrins (α-CD at 0-100 mg/ml, γ-CD at 200 mg/ml), chemically modified cyclodextrins (HPBCD and SBECD) at 200 mg/ml, and with no CD complexation in ddH2O. Solutions were prepared by adding excess meclizine to ddH2O samples with varying quantities of the different cyclodextrins. These samples were shaken for 24 hours at 200 rpm. Following the shaking, the vial contents were filtered through 0.45 μm filters to remove any excess solute. The remaining solution was assayed by HPLC for meclizine content.

[4] = pH-dependent solubility of meclizine cyclodextrin complexes in 0.5 M citric buffer; assay type: physicochemical; conditions: HPBCD 200 mg/ml, above pH of about 5, compared with non-chemically modified CDs
physchem [5] = conditions: 25 °C, pH 4, aqueous buffer, thermodynamic from solid, aqueous solubility of meclizine at pH 4.0
Method: as §1, with “(pH of 4.0) are prepared,” for “(pH of 3.0) are prepared,”, “concentrations of 0; 50; 100;” for “concentrations of 50; 100;”, “ml vials. 50-100 mg meclizine” for “ml vials. 75-100 mg meclizine”, “meclizine is available. The vials” for “meclizine is provided. The vials”

[6] = Aqueous solubility of meclizine versus pH, 0.1 M citric acid buffer and ddH2O, HPLC; assay type: physicochemical; conditions: for solubility at 24 h: thermodynamic from solid
Method: Citric acid (0.1M) buffer solutions are prepared with pH's of 1.0; 2.0; 3.0; 4.0, and 5.0 in ddH2O (de-oxygenated water by purging with nitrogen gas). 2 ml of each buffer are placed in 4 ml vials and 2 ml ddH2O is placed in a 4 ml vial. 20 mg meclizine HCl is added to each vial. The vials are sealed and are shaken on an orbital shaker for 24 hours at 200 rpm. Following the shaking, the vial contents are filtered through 0.45 μm filters to remove any excess solute. The remaining solution is assayed by HPLC for meclizine content.

solubility at 24 h (physchem [2]) [µg/mL]	solubility of meclizine with cyclodextrins [3]	solubility of meclizine in HPBCD at higher pH [4]	solubility at 24 h (physchem [5]) [µg/mL]	aqueous solubility of meclizine ([6]; 0.1 M citric acid buffer, about pH 5.0, shaken 24 hours)	solubility at 24 h ([6]; aqueous buffer, 0.1 M citric acid buffer, pH 1.0, shaken 24 hours, read-out: aqueous solubility of meclizine) [µg/mL]	solubility at 24 h ([6]; ddH2O (de-oxygenated water), pH 2, water, ddH2O, measured pH of about 2.0, shaken 24 hours, read-out: aqueous solubility of meclizine in ddH2O) [µg/mL]	SMILES	duration of action (nausea and vomiting)	water solubility [1] [g/100 ml]
–	–	–	–	–	–	–	CN1CCN(C(c2ccccc2)c2ccccc2)CC1 [cyclizine]	1 to 2 h	–
–	–	–	–	–	–	–	Cc1cccc(CN2CCN(C(c3ccccc3)c3ccc(Cl)cc3)CC2)c1.Cl.Cl (stereo not shown) [meclizine HCl, 1-(4-chlorobenzhydryl)-4-(3-methylbenzyl)-piperazine dihydrochloride]	–	0.1
~300 (≈ 767 µM)	improved solubility	improved solubility	~10 (≈ 25.6 µM)	below the limit of detection	~1500 (≈ 3840 µM)	~3800 (≈ 9720 µM)	Cc1cccc(CN2CCN(C(c3ccccc3)c3ccc(Cl)cc3)CC2)c1 (stereo not shown) [meclizine, 1-(4-chlorobenzhydryl)-4-(3-methylbenzyl)-piperazine]	up to 24 hours	–
